Measured values taken from paper PMC4043446 (Arteriosclerosis, thrombosis, and vascular biology, 2013).

Test system: LPS-challenged mice
Test: LPS-induced mortality in mouse endotoxemia model
Type: in vivo, C57BL/6 mice
Conditions: 5 mg/kg retro-orbital prior to i.p. LPS; 10 mice/group; Kaplan-Meier

With Integrilin the “LPS-induced mortality (Integrilin)” value was “showed a trend in reducing”.
